According to PMC7972453, “The allosteric modulation of complement C5 by knob domain peptides” (eLife, 2021):
Like-named read-outs stand apart in the source and are kept apart here. Bridges are numbered along the chain shown (N, C = ends). Where no end group is shown, it is not given here.

Assays:
[1] = tested on: alternative pathway C5b deposition (complement C5); experiment: Alternative pathway C5b deposition ELISA; assay type: biochemical, human; settings: n=3 (K8: n=5; K92: n=4), ND* = Not detected
From the text: Figure 1. Functional modulation of C5 via knob domain peptides. […] Following activation of C1q via antibody Fc, C4 and C2 are cleaved and form C4bC2a (the CP C3 convertase) which cleaves C3 into C3a (not shown) and C3b. At high C3b concentrations, C4bC2aC3b (the CP […]) forms and cleaves C5 into C5a and C5b. C5b associates with C6 and forms the membrane attack complex (MAC) with C7, C8, and multiple copies of C9. […] In the presence of factor B and factor D, C3bBb (the AP C3 convertase) generates additional C3b, prompting formation of C3bBbC3b (the AP C5 convertase), which cleaves C5 into C5a and C5b, driving MAC formation. CP-driven ELISAs (C) and AP-driven ELISAs (D) are shown. For both pathways, the inhibition of C3d (the surface-associated domain of C3b, which is upstream of C5 inhibition), C5a release, and C5b neo-epitope formation and C9 deposition were tracked within the MAC. […] For the AP assays, 5% serum (v/v) gives a putative C5 concentration of 20 nM. For the CP assays, 1% serum (v/v) gives a putative C5 concentration of 4 nM, based on a reported C5 serum concentration of 397 nM/75 µg/mL ([Sjöholm, 1975]).
For the C5b ELISA, assays were run using the CP and AP Complement functional ELISA kits (Svar Life Science, Malmö, Sweden). For sample preparation, serum was diluted as per the respective protocol for the CP and AP assays. […]

[2] = tested on: alternative pathway mediated C9 deposition; experiment: Inhibition of alternative pathway mediated C9 deposition (ELISA); assay type: biochemical, human; settings: 5% serum, n=3, ND* = Not detected
Procedure: For the C3 and C9 ELISAs, microtiter plates (MaxiSorp; Nunc) were incubated overnight at 4°C with 50 µL of a solution of in 75 mM sodium carbonate (pH 9.6) containing either 2.5 µg/mL aggregated human IgG (Sigma-Aldrich, Gillingham, UK) for CP or 20 µg/mL zymosan (Sigma-Aldrich, Gillingham, UK) for AP. As a negative control, wells were coated with 1% (w/v) bovine serum albumin (BSA)/PBS. Microtiter plates were washed four times with 250 µL of wash buffer (50 mM Tris-HCl), 150 mM NaCl and 0.1% Tween 20 (pH 8) between each step of the procedure. Wells were blocked using 250 µL of 1% (w/v) BSA/PBS for 2 hr at room temperature. […] Complement activation was assessed through detection of deposited complement activation factors using specific antibodies against C3b (rat anti-human C3d HM2198, Hycult, Uden, The Netherlands) and C9 (goat anti-human C9, A226, Complement Technologies Tyler, TX) at a 1:1000 dilution. Bound primary antibodies were detected with […]-conjugated goat anti-rat (ab97057, Abcam, Cambridge, UK) or rabbit anti-goat (P0449, Agilent Dako, Santa Clara, CA) secondary antibodies at a 1:1000 dilution. Bound HRP-conjugated antibodies were detected using TMB One solution (Eco-TEK – manufactured by Bio-TEK, Winooski, VT) with absorbance measured at 450 nm. […]

human C5b-6 = human C5b-6 (Homo sapiens, UniProt P01031+P13671); experiment: SPR single-cycle kinetics, binding to C5b-6; design: Upon cleavage of C5a, the remaining domains of the α-chain undergo a substantial conformational change; purchased Complement Technologies, Tyler, TX
human C5b-6, sequence (P01031 752-1676 limits assumed): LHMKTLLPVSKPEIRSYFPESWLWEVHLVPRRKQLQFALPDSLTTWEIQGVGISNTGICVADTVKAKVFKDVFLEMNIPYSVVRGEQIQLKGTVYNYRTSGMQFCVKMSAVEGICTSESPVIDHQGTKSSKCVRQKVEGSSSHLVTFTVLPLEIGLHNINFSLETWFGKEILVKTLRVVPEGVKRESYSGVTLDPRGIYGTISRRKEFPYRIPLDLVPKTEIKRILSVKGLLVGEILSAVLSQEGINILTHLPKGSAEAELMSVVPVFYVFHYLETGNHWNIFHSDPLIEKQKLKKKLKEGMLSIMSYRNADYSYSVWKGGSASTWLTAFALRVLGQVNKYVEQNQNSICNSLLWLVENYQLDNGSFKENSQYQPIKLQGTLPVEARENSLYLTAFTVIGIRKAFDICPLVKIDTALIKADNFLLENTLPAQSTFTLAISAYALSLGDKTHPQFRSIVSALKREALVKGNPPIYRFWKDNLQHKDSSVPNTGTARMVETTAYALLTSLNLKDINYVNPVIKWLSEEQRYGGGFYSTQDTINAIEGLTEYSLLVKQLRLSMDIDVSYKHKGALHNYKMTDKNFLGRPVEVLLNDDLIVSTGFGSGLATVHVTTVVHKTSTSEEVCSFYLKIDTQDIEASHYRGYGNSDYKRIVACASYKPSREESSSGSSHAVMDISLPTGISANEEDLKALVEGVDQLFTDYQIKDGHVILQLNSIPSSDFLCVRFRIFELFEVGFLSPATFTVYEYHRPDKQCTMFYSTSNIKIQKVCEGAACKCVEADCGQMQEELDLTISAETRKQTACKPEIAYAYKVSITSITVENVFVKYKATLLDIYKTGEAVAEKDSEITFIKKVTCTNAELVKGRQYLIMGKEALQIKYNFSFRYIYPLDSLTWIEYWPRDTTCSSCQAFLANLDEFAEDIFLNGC
human C5b-6, sequence (P01031 19-673 limits assumed): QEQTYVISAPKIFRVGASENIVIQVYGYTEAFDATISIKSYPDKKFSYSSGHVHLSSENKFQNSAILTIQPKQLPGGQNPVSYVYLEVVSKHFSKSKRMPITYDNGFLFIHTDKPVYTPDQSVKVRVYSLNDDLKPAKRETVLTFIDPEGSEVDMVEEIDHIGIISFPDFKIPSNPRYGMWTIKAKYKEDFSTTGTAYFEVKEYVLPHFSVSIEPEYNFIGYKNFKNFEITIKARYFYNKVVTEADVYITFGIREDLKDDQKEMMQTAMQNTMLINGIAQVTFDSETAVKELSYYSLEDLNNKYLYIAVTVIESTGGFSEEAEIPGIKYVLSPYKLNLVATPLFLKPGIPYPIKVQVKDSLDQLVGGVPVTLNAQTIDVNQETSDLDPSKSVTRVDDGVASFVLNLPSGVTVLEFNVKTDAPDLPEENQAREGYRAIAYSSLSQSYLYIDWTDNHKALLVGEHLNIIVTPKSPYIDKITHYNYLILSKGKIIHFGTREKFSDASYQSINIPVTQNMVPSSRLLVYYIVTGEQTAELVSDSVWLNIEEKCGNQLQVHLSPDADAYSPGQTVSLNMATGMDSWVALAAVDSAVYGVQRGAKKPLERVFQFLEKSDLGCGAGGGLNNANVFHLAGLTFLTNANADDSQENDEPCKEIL
human C5b-6, sequence (P13671 22-934 partner): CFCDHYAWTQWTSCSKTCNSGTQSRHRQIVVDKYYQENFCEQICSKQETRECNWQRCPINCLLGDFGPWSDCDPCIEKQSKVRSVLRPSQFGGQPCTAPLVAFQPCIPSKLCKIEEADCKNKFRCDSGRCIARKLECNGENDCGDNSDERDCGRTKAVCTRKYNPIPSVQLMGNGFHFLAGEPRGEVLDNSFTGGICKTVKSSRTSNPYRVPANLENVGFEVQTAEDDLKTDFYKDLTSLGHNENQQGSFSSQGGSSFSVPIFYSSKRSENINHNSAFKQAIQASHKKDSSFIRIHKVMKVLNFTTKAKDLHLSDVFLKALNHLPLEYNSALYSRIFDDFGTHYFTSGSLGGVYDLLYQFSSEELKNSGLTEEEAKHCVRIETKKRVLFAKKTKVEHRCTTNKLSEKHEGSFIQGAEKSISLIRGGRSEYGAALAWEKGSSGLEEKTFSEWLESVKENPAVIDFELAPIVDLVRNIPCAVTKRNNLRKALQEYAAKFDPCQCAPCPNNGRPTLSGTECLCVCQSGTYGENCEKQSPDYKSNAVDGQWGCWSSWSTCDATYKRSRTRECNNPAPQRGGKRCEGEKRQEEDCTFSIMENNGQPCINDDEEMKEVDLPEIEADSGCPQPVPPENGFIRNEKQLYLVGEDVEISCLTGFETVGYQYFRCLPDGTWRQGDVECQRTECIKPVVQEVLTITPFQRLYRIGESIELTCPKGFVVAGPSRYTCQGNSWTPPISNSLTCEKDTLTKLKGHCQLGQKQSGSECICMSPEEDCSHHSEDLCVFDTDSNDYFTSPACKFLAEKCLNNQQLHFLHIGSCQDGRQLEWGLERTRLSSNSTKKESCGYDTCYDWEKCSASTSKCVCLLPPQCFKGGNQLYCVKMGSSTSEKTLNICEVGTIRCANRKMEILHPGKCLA
Procedure: On a Biacore 8K (GE Healthcare, Amersham, UK), human C5b was immobilised on a CM5 chip (GE Healthcare, Amersham, UK). Flow cells were activated using a standard immobilisation protocol: EDC/NHS was mixed at 1:1 ratio (flow rate, 10 µL/min; contact time, 30 s). C5b, at 1 µg/mL, or C5b-6 (Complement Technologies, Tyler, TX), at 2 µg/mL, in pH 4.5 sodium acetate buffer, were immobilised on flow cell two only (flow rate, 10 µL/min; contact time, 420 s). Finally, ethanolamine was applied to both flow cells (flow rate, 10 µL/min; contact time, 420 s). A final immobilisation level of 500–700 RUs was obtained for C5b and 1000–1150 RUs were obtained for C5b-6. Single-cycle kinetics were measured using a seven-point, threefold serial dilution (spanning a range of 1 µM to 1.4 nM) in HBS-EP buffer (GE Healthcare, Amersham, UK). A high flow rate of 40 µL/min was used, with a contact time of 300 s and a dissociation time of 2700 s. Binding to the reference surface was subtracted, and the data were fitted to a single-site binding model using Biacore evaluation software. All sensorgrams were inspected for evidence of mass transport limitation using the flow rate-independent component of the mass transfer constant (tc).
Table 4.2. SPR single-cycle kinetics of knob domains binding to human C5b-6.

## SVCPDGFDWGYGCAAGSSRFCTRHDWCCYDERADSHTYGFCTGNRVENLYFQ (disulfide 3-28, 13-21, 27-41) [K8]
[1]; AP C5b ELISA, preincubated 15 min RT
  Average Emax: 91.8%
[1]; AP functional ELISA kit (Svar), peptide preincubated with human serum 15 min RT, AP 5% serum, putative 20 nM C5, read-out: Geomean IC50
  IC50: 29.2 nM
[2]; AP C9 deposition
  Average Emax: 73.3%
[2]; AP, Mg-EGTA pH 7.3, zymosan plate, preincubated on ice 30 min, 60 min 37°C, read-out: Geomean IC50
  IC50: 232 nM
Human C5b-6; read-out: mean koff, Biacore 8K, HBS-EP, summary of n=4
  koff: 0.000295 s⁻¹
Human C5b-6; read-out: mean kon, Biacore 8K, HBS-EP, summary of n=4
  kon: 12500 M⁻¹ s⁻¹
Human C5b-6; replicate n=1
  Stoichiometric ratio: 0.3
  koff: 0.000282 s⁻¹
  kon: 10100 M⁻¹ s⁻¹
Human C5b-6; replicate n=2
  Stoichiometric ratio: 0.3
  koff: 0.000384 s⁻¹
  kon: 12100 M⁻¹ s⁻¹
Human C5b-6; replicate n=3
  Stoichiometric ratio: 0.5
  koff: 0.00024 s⁻¹
Human C5b-6; replicate n=4
  Stoichiometric ratio: 0.3
  koff: 0.000277 s⁻¹
  kon: 15600 M⁻¹ s⁻¹
Human C5b-6; summary of n=4
  Mean stoichiometric ratio: 0.4
